# Measurements: patent US20150010473A1, “DIAGNOSIS AND TREATMENT OF TUMORS” (MORPHOTEK, INC., priority 2006, published 2015)
# Key:
# [1] = system: primitive neuroectodermal tumors; assay: Histochemical staining of biopsy sections with biotinylated chlorotoxin, summary; format: binding, human; settings: of 53 patients tested
# Text: Most of the samples of human tissue, from both sexes, of different ages and races were obtained through the Cooperative Human Tissue Network, Tissue Procurement at UAB, UAB hospitals and the Human Brain Tissue Bank in London, Canada. Snap frozen tissue and fresh tissue embedded in a freezing gel were sliced at 8 microns and picked up onto positively charged glass slides. The sections were then fixed in 4% paraformaldehyde or milloniqs according to the staining protocol. Paraffin blocks were sectioned and prepared according to standard procedures.
# Biopsy sections were blocked for 1 hour in 10% normal goat serum in PBS and treated with a dilution of biotinylated chlorotoxin overnight at 4° C. […]
# Finally, a third adjacent section was stained with both hematoxylin, a cell nuclei specific stain, and eosin, a cytoplasmic stain. Therefore, for each tissue analyzed, three adjacent sections were stained. […] In the photomicrographs, adjacent sections are identified as follows: TM-601: biotinylated chlorotoxin detected by a brown reaction product of DAB with the biotin and further counterstained with methyl. green; Control: the control section stained with only methyl green; and, H&E: the hematoxylin and eosin stained section. […]
# membrane of glioma cells = settings: Soroceanu et al. 1998; cited from earlier work
# glioma cells [2] = settings: Ullrich and Sontheimer 1997; cited from earlier work
# glioma cells [3] = settings: Transwell assays; Soroceanu et al.; cited from earlier work
substance,measurement,setting,value
chlorotoxin,patients whose tumor material showed chlorotoxin specificity,[1],50
same,binding to glioma cells,membrane of glioma cells,selectively binds to the membrane of glioma cells
same,effect on glioma cell proliferation,glioma cells [2],enhances glioma cell proliferation
same,effect on glioma cell migration,glioma cells [3],inhibits the ability of glioma cells to migrate
